In ChEMBL document CHEMBL4507277:

What was measured:
[1] = tested on: Receptor-type tyrosine-protein kinase FLT3 (Homo sapiens), P36888 [UNDEFINED MUTATION]; settings: Compound concentration 1000.0 nM
[2] = target: Beta-2 adrenergic receptor (Homo sapiens) (UniProt P07550); settings: Compound concentration 10.0 uM
[3] = target: Testis-specific serine/threonine-protein kinase 3 (Homo sapiens) (UniProt Q96PN8); settings: Compound concentration 1000.0 nM
[4] = target: Phosphatidylinositol 4,5-bisphosphate 3-kinase catalytic subunit beta isoform (Homo sapiens) (UniProt P42338); settings: Compound concentration 1000.0 nM
[5] = target: Mitogen-activated protein kinase kinase kinase 20 (Homo sapiens) (UniProt Q9NYL2); settings: Compound concentration 1000.0 nM
[6] = tested on: Tyrosine-protein kinase ABL1 (Homo sapiens), P00519 [T315I]; settings: Compound concentration 1000.0 nM
[7] = target: Ribosomal protein S6 kinase alpha-3 (Homo sapiens) (UniProt P51812); settings: Compound concentration 1000.0 nM
[8] = target: Proto-oncogene tyrosine-protein kinase Src (Homo sapiens) (UniProt P12931); settings: Compound concentration 1000.0 nM
Proto-oncogene tyrosine-protein kinase Src (Homo sapiens), sequence (P12931 2-536 limits assumed): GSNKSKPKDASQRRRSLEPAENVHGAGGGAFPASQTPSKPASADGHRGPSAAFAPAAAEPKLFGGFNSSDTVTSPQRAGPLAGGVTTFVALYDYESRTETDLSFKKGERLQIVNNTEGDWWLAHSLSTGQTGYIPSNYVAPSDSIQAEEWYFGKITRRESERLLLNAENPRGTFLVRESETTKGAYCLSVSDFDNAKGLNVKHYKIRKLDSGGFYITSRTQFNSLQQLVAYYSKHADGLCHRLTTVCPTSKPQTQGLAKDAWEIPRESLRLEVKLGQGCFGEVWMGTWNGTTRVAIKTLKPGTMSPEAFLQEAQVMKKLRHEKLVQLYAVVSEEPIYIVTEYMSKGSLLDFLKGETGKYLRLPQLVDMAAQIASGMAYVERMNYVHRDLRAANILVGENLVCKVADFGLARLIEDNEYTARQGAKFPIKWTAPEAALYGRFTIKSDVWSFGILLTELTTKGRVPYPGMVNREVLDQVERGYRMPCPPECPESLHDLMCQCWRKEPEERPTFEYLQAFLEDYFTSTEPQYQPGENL

[9] = target: Serine/threonine-protein kinase 24 (Homo sapiens) (UniProt Q9Y6E0); settings: Compound concentration 1000.0 nM
[10] = target: Serine/threonine-protein kinase TAO2 (Homo sapiens) (UniProt Q9UL54); settings: Compound concentration 1000.0 nM
[11] = target: Mitogen-activated protein kinase 14 (Homo sapiens) (UniProt Q16539); settings: Compound concentration 1000.0 nM
[12] = target: MAP kinase-interacting serine/threonine-protein kinase 2 (Homo sapiens) (UniProt Q9HBH9); settings: Compound concentration 1000.0 nM
[13] = target: D(3) dopamine receptor (Homo sapiens) (UniProt P35462); settings: Compound concentration 10.0 uM
[14] = tested on: Receptor-type tyrosine-protein kinase FLT3 (Homo sapiens), P36888 [UNDEFINED MUTATION]; settings: Compound concentration 1000.0 nM; remark: listed apart in the source
[15] = target: Mitogen-activated protein kinase kinase kinase 13 (Homo sapiens) (UniProt O43283); settings: Compound concentration 1000.0 nM
[16] = target: 3-phosphoinositide-dependent protein kinase 1 (Homo sapiens) (UniProt O15530); settings: Compound concentration 1000.0 nM
[17] = target: Serine/threonine-protein kinase N1 (Homo sapiens) (UniProt Q16512); settings: Compound concentration 1000.0 nM
[18] = target: 5-hydroxytryptamine receptor 2B (Homo sapiens) (UniProt P41595); settings: Compound concentration 10.0 uM
[19] = target: Mitogen-activated protein kinase 12 (Homo sapiens) (UniProt P53778); settings: Compound concentration 1000.0 nM
[20] = target: Muscarinic acetylcholine receptor M2 (Homo sapiens) (UniProt P08172); settings: Compound concentration 10.0 uM
[21] = target: Macrophage colony-stimulating factor 1 receptor (Homo sapiens) (UniProt P07333); settings: Compound concentration 1000.0 nM
[22] = target: Ephrin type-A receptor 6 (Homo sapiens) (UniProt Q9UF33); settings: Compound concentration 1000.0 nM
Ephrin type-A receptor 6 (Homo sapiens), sequence (Q9UF33 whole entry): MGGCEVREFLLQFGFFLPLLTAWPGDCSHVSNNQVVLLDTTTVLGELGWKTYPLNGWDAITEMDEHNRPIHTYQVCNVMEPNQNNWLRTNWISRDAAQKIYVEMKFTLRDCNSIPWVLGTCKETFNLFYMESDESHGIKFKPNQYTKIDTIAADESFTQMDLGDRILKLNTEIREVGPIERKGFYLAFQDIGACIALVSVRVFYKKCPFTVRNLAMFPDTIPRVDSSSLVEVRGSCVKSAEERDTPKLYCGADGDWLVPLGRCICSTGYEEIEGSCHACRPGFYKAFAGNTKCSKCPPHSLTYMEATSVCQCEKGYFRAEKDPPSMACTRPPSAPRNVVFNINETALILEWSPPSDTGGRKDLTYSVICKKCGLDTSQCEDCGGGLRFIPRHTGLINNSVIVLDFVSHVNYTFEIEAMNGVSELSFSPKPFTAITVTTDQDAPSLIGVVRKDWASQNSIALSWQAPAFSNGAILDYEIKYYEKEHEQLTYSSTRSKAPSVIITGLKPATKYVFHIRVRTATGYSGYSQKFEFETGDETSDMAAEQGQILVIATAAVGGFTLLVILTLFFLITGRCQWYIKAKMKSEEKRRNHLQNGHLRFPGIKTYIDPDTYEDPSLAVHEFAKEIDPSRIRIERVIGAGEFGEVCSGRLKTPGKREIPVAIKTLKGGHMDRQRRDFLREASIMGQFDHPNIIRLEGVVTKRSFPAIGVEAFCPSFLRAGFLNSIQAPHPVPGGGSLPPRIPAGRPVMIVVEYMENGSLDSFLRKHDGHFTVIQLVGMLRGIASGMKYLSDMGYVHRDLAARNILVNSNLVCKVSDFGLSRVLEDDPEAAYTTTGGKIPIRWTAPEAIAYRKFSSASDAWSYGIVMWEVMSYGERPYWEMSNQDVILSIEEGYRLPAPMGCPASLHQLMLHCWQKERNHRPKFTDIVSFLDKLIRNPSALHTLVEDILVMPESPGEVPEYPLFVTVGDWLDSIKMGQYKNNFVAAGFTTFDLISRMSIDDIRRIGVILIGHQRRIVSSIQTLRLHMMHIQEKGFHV

[23] = target: Fibroblast growth factor receptor 2 (Homo sapiens) (UniProt P21802); settings: Compound concentration 1000.0 nM
[24] = target: Ribosomal protein S6 kinase alpha-5 (Homo sapiens) (UniProt O75582); settings: Compound concentration 1000.0 nM
[25] = target: Serine/threonine-protein kinase DCLK1 (Homo sapiens) (UniProt O15075); settings: Compound concentration 1000.0 nM
[26] = target: Serine/threonine-protein kinase Nek6 (Homo sapiens) (UniProt Q9HC98); settings: Compound concentration 1000.0 nM
[27] = target: Vascular endothelial growth factor receptor 1 (Homo sapiens) (UniProt P17948); settings: Compound concentration 1000.0 nM
[28] = target: Casein kinase I isoform alpha-like (Homo sapiens) (UniProt Q8N752); settings: Compound concentration 1000.0 nM
[29] = target: Serine/threonine-protein kinase N2 (Homo sapiens) (UniProt Q16513); settings: Compound concentration 1000.0 nM
[30] = target: G protein-coupled receptor kinase 3 (Homo sapiens) (UniProt P35626); settings: Compound concentration 1000.0 nM
G protein-coupled receptor kinase 3 (Homo sapiens), sequence (P35626 whole entry): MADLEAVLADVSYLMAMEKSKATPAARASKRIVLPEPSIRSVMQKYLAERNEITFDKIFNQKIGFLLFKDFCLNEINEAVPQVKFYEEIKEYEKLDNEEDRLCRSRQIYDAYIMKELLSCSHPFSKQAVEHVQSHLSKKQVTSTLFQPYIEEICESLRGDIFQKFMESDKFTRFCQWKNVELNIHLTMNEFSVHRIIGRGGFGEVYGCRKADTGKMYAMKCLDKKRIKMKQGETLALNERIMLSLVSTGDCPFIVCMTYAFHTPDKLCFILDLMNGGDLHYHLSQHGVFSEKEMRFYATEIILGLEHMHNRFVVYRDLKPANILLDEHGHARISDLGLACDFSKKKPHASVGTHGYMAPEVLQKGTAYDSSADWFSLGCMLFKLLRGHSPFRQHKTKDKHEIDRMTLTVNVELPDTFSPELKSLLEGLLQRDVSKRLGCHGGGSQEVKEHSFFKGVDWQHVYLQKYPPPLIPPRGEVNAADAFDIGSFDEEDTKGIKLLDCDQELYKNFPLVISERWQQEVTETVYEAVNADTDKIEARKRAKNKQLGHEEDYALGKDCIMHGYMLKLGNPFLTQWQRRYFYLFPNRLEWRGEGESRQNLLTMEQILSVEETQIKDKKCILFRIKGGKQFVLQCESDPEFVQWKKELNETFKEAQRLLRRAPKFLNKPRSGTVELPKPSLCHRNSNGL

[31] = target: Activin receptor type-1 (Homo sapiens) (UniProt Q04771); settings: Compound concentration 1000.0 nM
[32] = target: Mitogen-activated protein kinase 11 (Homo sapiens) (UniProt Q15759); settings: Compound concentration 1000.0 nM
Mitogen-activated protein kinase 11 (Homo sapiens), sequence (Q15759 whole entry): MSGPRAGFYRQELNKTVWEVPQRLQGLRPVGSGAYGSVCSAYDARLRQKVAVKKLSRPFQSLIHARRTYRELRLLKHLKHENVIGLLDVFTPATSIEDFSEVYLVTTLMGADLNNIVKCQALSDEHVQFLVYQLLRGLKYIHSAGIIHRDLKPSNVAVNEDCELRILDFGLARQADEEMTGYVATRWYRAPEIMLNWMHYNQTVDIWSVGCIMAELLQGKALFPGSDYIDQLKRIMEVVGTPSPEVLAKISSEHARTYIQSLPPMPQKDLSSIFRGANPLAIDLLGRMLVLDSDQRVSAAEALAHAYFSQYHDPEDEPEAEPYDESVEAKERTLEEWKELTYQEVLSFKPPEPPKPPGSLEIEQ

[33] = target: GABA-A receptor; anion channel (Rattus norvegicus) (UniProt O09028+P15431+P18506+P18508+P19969+P20236+P23574+P23576+P28471+P28473+P30191+P62813+P63079+P63138+Q91ZM7+Q9ES14); settings: Compound concentration 10.0 uM
[34] = tested on: Tyrosine-protein kinase ABL1 (Homo sapiens), P00519 [E255K]; settings: Compound concentration 1000.0 nM
[35] = target: Calcium/calmodulin-dependent protein kinase kinase 1 (Homo sapiens) (UniProt Q8N5S9); settings: Compound concentration 1000.0 nM
[36] = target: Serine/threonine-protein kinase DCLK3 (Homo sapiens) (UniProt Q9C098); settings: Compound concentration 1000.0 nM
[37] = target: Tyrosine-protein kinase Srms (Homo sapiens) (UniProt Q9H3Y6); settings: Compound concentration 1000.0 nM
[38] = tested on: Phosphatidylinositol 4,5-bisphosphate 3-kinase catalytic subunit alpha isoform (Homo sapiens), P42336 [H1047Y]; settings: Compound concentration 1000.0 nM
Phosphatidylinositol 4,5-bisphosphate 3-kinase catalytic subunit alpha isoform (Homo sapiens), P42336 [H1047Y], sequence (P42336 whole entry H1047Y, canonical isoform): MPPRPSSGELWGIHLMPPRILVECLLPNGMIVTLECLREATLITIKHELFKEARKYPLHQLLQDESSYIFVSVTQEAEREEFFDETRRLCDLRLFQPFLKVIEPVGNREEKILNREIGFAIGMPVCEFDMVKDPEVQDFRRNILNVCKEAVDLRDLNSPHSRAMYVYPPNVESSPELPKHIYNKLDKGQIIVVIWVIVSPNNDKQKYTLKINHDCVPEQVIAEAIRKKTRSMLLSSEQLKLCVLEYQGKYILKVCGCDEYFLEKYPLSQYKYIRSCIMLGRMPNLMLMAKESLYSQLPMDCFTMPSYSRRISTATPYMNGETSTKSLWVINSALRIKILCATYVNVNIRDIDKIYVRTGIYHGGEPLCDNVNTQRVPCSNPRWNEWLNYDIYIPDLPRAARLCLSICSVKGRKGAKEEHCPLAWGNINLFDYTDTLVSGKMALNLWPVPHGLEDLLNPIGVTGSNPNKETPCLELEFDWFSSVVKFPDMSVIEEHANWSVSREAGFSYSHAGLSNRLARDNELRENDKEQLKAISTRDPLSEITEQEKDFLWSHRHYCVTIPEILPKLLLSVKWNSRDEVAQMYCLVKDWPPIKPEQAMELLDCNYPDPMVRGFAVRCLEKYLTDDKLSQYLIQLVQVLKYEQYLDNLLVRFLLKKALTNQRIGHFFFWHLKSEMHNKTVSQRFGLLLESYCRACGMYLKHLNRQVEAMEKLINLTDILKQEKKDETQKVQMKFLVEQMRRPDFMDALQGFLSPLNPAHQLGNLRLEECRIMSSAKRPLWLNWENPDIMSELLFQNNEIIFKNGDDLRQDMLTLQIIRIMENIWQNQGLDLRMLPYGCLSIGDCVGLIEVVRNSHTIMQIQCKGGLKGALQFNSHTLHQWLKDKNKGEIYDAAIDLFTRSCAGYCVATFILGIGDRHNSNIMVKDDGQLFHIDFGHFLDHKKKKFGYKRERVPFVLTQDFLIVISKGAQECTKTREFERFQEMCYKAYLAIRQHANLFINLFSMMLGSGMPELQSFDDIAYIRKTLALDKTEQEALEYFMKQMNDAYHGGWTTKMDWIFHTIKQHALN

[39] = target: Mitogen-activated protein kinase 13 (Homo sapiens) (UniProt O15264); settings: Compound concentration 1000.0 nM
Mitogen-activated protein kinase 13 (Homo sapiens), sequence (O15264 whole entry): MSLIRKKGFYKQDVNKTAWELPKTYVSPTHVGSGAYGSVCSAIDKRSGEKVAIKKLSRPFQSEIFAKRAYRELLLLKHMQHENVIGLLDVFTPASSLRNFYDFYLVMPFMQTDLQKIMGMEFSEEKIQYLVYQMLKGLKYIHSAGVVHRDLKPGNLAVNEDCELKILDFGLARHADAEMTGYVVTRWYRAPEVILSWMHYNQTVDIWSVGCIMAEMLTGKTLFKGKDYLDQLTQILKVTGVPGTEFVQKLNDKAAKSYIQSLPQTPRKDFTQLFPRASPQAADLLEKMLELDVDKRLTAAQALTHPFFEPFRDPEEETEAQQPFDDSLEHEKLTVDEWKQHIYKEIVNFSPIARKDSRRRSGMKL

[40] = target: Rhodopsin kinase GRK1 (Homo sapiens) (UniProt Q15835); settings: Compound concentration 1000.0 nM
[41] = target: RAC-alpha serine/threonine-protein kinase (Homo sapiens) (UniProt P31749); settings: Compound concentration 1000.0 nM
[42] = target: Serine/threonine-protein kinase haspin (Homo sapiens) (UniProt Q8TF76); settings: Compound concentration 1000.0 nM
[43] = tested on: Mast/stem cell growth factor receptor Kit (Homo sapiens), P10721 [V559D,V654A]; settings: Compound concentration 1000.0 nM

Receptor-type tyrosine-protein kinase FLT3 (Homo sapiens), P36888 [UNDEFINED MUTATION], sequence (P36888 whole entry, looked up, change not shown): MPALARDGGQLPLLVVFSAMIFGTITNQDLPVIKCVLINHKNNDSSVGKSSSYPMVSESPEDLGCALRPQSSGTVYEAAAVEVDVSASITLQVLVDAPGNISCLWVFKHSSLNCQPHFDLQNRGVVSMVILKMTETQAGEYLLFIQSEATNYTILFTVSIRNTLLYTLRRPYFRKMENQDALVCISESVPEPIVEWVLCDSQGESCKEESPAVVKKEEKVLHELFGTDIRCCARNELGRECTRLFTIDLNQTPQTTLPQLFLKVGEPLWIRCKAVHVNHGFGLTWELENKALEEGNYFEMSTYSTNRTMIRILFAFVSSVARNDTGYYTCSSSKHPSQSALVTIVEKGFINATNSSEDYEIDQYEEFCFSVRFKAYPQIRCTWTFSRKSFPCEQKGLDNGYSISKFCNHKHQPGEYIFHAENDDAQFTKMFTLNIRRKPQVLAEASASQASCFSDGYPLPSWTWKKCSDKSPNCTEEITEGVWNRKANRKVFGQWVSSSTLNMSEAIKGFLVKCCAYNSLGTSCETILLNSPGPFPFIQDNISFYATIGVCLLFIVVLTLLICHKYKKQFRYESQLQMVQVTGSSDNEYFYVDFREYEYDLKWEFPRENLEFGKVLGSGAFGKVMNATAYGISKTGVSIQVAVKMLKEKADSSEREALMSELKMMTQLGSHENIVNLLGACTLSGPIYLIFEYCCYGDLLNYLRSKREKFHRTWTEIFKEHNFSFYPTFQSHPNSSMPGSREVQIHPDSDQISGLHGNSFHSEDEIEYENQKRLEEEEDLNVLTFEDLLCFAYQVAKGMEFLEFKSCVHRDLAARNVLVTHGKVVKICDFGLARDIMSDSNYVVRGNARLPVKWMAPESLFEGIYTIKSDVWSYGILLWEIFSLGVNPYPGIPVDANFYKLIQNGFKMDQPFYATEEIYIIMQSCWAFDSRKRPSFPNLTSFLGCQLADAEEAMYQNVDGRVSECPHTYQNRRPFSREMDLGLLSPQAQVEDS

CCS(=O)(=O)c1cc2cc(C[C@](O)(CC(C)(C)c3ccc(F)cc3C(N)=O)C(F)(F)F)[nH]c2cn1
inactive: residual activity [1] 86% | inhibition [2] 4.71% | residual activity [3] 100% | residual activity [4] 98% | residual activity [5] 87% | residual activity [6] 100% | residual activity [7] 100% | residual activity [8] 100% | residual activity [9] 86% | residual activity [10] 85% | residual activity [11] 100% | residual activity [12] 100% | inhibition [13] 7.81% | residual activity [14] 95% | residual activity [15] 90% | residual activity [16] 100% | residual activity [17] 100% | inhibition [18] 26.1% | residual activity [19] 100% | inhibition [20] -0.48% | residual activity [21] 100% | residual activity [22] 100% | residual activity [23] 100% | residual activity [24] 100% | residual activity [25] 99% | residual activity [26] 100% | residual activity [27] 81% | residual activity [28] 100% | residual activity [29] 100% | residual activity [30] 100% | residual activity [31] 100% | residual activity [32] 100% | inhibition [33] -1.62% | residual activity [34] 92% | residual activity [35] 100% | residual activity [36] 100% | residual activity [37] 83% | residual activity [38] 100% | residual activity [39] 100% | residual activity [40] 100% | residual activity [41] 100% | residual activity [42] 100% | residual activity [43] 79%

CCS(=O)(=O)c1cc2cc(C[C@@](O)(CC(C)(C)c3ccc(F)cc3C(N)=O)C(F)(F)F)[nH]c2cn1
active: residual activity [9] 0%
inactive: residual activity [1] 73% | inhibition [2] 15.2% | residual activity [3] 96% | residual activity [4] 87% | residual activity [5] 100% | residual activity [6] 67% | residual activity [7] 100% | residual activity [8] 100% | residual activity [10] 76% | residual activity [11] 97% | residual activity [12] 87% | inhibition [13] 1.8% | residual activity [14] 86% | residual activity [15] 82% | residual activity [16] 100% | residual activity [17] 85% | inhibition [18] -7.85% | residual activity [19] 100% | inhibition [20] -8.82% | residual activity [21] 100% | residual activity [22] 100% | residual activity [23] 95% | residual activity [24] 69% | residual activity [25] 100% | residual activity [26] 100% | residual activity [27] 67% | residual activity [28] 99% | residual activity [29] 85% | residual activity [30] 73% | residual activity [31] 100% | residual activity [32] 100% | inhibition [33] 3.48% | residual activity [34] 90% | residual activity [35] 87% | residual activity [36] 100% | residual activity [37] 72% | residual activity [38] 95% | residual activity [39] 96% | residual activity [40] 100% | residual activity [41] 86% | residual activity [42] 80% | residual activity [43] 81%
